Results from the supplement of paper PMC10307832.

Columns and labels:
Assay in all cases: relative viability (nuclei count vs DMSO), 5 days (fraction); higher = more cells survive
Dinaciclib + Pictilisib = compound: CCc1cnn2c(NCc3ccc[n+]([O-])c3)cc(N3CCCC[C@H]3CCO)nc12 [Dinaciclib] + CS(=O)(=O)N1CCN(Cc2cc3nc(-c4cccc5[nH]ncc45)nc(N4CCOCC4)c3s2)CC1 [Pictilisib] (partner 1 µM)
How it was run: (§1)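 Relative viability divides the nuclei count in treated wells by that in vehicle wells. Lung cancer cell lines were seeded in 1536-well plates, dosed by pin tool the next day, and fixed and stained after 5 days in one step with final 0.05% Triton X-100, 1% formaldehyde and 1 ug/ml Hoechst. Dosing was a single drug or a fixed anchor-drug dose plus five library-drug doses (not always all listed) in √10 steps, and values are medians of duplicate plates imaged at 4×.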

Dinaciclib + Olaparib = compound: CCc1cnn2c(NCc3ccc[n+]([O-])c3)cc(N3CCCC[C@H]3CCO)nc12 [Dinaciclib] + O=C(c1cc(Cc2n[nH]c(=O)c3ccccc23)ccc1F)N1CCN(C(=O)C2CC2)CC1 [Olaparib] (partner 8 µM)
How it was run: as §1

Dinaciclib + AZD7762 = compound: CCc1cnn2c(NCc3ccc[n+]([O-])c3)cc(N3CCCC[C@H]3CCO)nc12 [Dinaciclib] + NC(=O)Nc1cc(-c2cccc(F)c2)sc1C(=O)N[C@H]1CCCNC1 [AZD7762] (partner 0.2 µM)
How it was run: as §1

Dinaciclib + Crizotinib = compound: CCc1cnn2c(NCc3ccc[n+]([O-])c3)cc(N3CCCC[C@H]3CCO)nc12 [Dinaciclib] + C[C@@H](Oc1cc(-c2cnn(C3CCNCC3)c2)cnc1N)c1c(Cl)ccc(F)c1Cl [Crizotinib] (partner 1 µM)
How it was run: as §1

Dinaciclib + Trametinib = compound: CCc1cnn2c(NCc3ccc[n+]([O-])c3)cc(N3CCCC[C@H]3CCO)nc12 [Dinaciclib] + CC(=O)Nc1cccc(-n2c(=O)n(C3CC3)c(=O)c3c(Nc4ccc(I)cc4F)n(C)c(=O)c(C)c32)c1 [Trametinib] (partner 0.02 µM)
How it was run: as §1

| Cell Line | relative viability (Dinaciclib + Pictilisib; first compound 0.009487 µM) | relative viability (Dinaciclib + Pictilisib; first compound 0.03 µM) | relative viability (Dinaciclib + Pictilisib; first compound 0.09487 µM) | relative viability (Dinaciclib + Pictilisib; first compound 0.3 µM) | relative viability (Dinaciclib + Olaparib; first compound 0.009487 µM) | relative viability (Dinaciclib + Olaparib; first compound 0.03 µM) | relative viability (Dinaciclib + Olaparib; first compound 0.09487 µM) | relative viability (Dinaciclib + Olaparib; first compound 0.3 µM) | relative viability (Dinaciclib + AZD7762; first compound 0.009487 µM) | relative viability (Dinaciclib + AZD7762; first compound 0.03 µM) | relative viability (Dinaciclib + AZD7762; first compound 0.09487 µM) | relative viability (Dinaciclib + AZD7762; first compound 0.3 µM) | relative viability (Dinaciclib + Crizotinib; first compound 0.009487 µM) | relative viability (Dinaciclib + Crizotinib; first compound 0.03 µM) | relative viability (Dinaciclib + Crizotinib; first compound 0.09487 µM) | relative viability (Dinaciclib + Crizotinib; first compound 0.3 µM) | relative viability (Dinaciclib + Trametinib; first compound 0.009487 µM) | relative viability (Dinaciclib + Trametinib; first compound 0.03 µM) | relative viability (Dinaciclib + Trametinib; first compound 0.09487 µM) | relative viability (Dinaciclib + Trametinib; first compound 0.3 µM) |
| --- | --- | --- | --- | --- | --- | --- | --- | --- | --- | --- | --- | --- | --- | --- | --- | --- | --- | --- | --- | --- |
| NCI-H1734 | 0.396 | 0.188 | 0.124 | 0.128 | 0.468 | 0.117 | 0.113 | 0.12 | 0.505 | 0.108 | 0.108 | 0.089 | 0.464 | 0.163 | 0.1 | 0.12 | 0.595 | 0.278 | 0.146 | 0.136 |
| NCI-H596 | 0.418 | 0.245 | 0.157 | 0.106 | 0.699 | 0.522 | 0.222 | 0.202 | 1.09 | 0.479 | 0.262 | 0.24 | 1.06 | 0.746 | 0.196 | 0.196 | 0.711 | 0.692 | 0.19 | 0.19 |
| NCI-H1755 | 0.387 | 0.132 | 0.127 | 0.143 | 0.865 | 0.284 | 0.206 | 0.215 | 0.49 | 0.306 | 0.211 | 0.219 | 0.8 | 0.289 | 0.147 | 0.147 | 0.786 | 0.46 | 0.225 | 0.202 |
| NCI-H647 | 0.493 | 0.0803 | 0.0566 | 0.0473 | 0.258 | 0.0359 | 0.0547 | 0.051 | 0.274 | 0.0458 | 0.0377 | 0.0491 | 0.606 | 0.0725 | 0.0657 | 0.0722 | 0.379 | 0.192 | 0.0855 | 0.0533 |
| HCC-15 | 0.637 | 0.117 | 0.0949 | 0.11 | 0.494 | 0.199 | 0.106 | 0.119 | 1.18 | 0.88 | 0.113 | 0.0634 | 0.618 | 0.098 | 0.0953 | 0.0947 | 0.329 | 0.248 | 0.116 | 0.112 |
| NCI-H2126 | 0.474 | 0.246 | 0.198 | 0.199 | 0.89 | 0.449 | 0.186 | 0.169 | 1.13 | 0.899 | 0.29 | 0.198 | 1.01 | 0.565 | 0.213 | 0.215 | 0.53 | 0.41 | 0.165 | 0.175 |
| NCI-H2085 | 0.424 | 0.281 | 0.221 | 0.215 | 0.838 | 0.321 | 0.257 | 0.263 | 1.14 | 0.391 | 0.211 | 0.221 | 1.02 | 0.313 | 0.208 | 0.236 | 0.439 | 0.259 | 0.187 | 0.183 |
| BEN | 0.621 | 0.388 | 0.173 | 0.191 | 0.956 | 0.457 | 0.258 | 0.26 | 0.894 | 0.566 | 0.217 | 0.287 | 1 | 0.512 | 0.18 | 0.215 | 1.44 | 0.981 | 0.349 | 0.291 |
| NCI-H650 | 0.872 | 0.218 | 0.135 | 0.134 | 0.382 | 0.13 | 0.12 | 0.104 | 1.08 | 0.153 | 0.148 | 0.173 | 0.638 | 0.152 | 0.131 | 0.135 | 0.964 | 0.189 | 0.122 | 0.13 |
| LCLC-103H | 0.572 | 0.463 | 0.147 | 0.143 | 0.775 | 0.361 | 0.227 | 0.198 | 0.881 | 0.351 | 0.279 | 0.197 | 1.06 | 1.03 | 0.329 | 0.123 | 0.674 | 0.659 | 0.255 | 0.249 |
| PC-14 | 0.436 | 0.145 | 0.0318 | 0.0249 | 0.143 | 0.0629 | 0.0502 | 0.0532 | 0.389 | 0.0715 | 0.0519 | 0.0512 | 0.651 | 0.241 | 0.0877 | 0.0668 | 0.412 | 0.0589 | 0.0476 | 0.0471 |
| NCI-H1915 | 0.658 | 0.158 | 0.121 | 0.102 | 0.202 | 0.108 | 0.112 | 0.0974 | 0.763 | 0.354 | 0.115 | 0.0982 | 0.706 | 0.117 | 0.103 | 0.102 | 0.343 | 0.225 | 0.114 | 0.0978 |
